The record followed here is ChEMBL document CHEMBL3861981 (J Med Chem, 2016).

One data set concerns Hepatitis C virus. Nature of the data set: Antiviral activity against HCV genotype 1b Con1 expressing NS3 protease infected in human Huh7.5 cells assessed as reduction in viral RNA replication by luciferase reporter gene assay. In kind it is functional, cell-based, Hepacivirus hominis. The settings on record: genotype 1b Con1, Huh-7. A general note: Reporter assays use an easily measured gene product as a stand-in for the process of interest.

The nature of data set [1]: Half life in human liver microsomes. In kind it is ADME.
The nature of data set [2]: Half life in cannulated Sprague-Dawley rat plasma at 5 mg/kg, iv administered as 10 mins infusion by LC/MS/MS analysis. In kind it is ADME, organism-based.
The nature of data set [3]: Clearance in cannulated Sprague-Dawley rat plasma at 5 mg/kg, iv administered as 10 mins infusion measured up to 24 hrs post dose by LC/MS/MS analysis. In kind it is ADME, organism-based.
A short description of data set [4]: Oral bioavailability in cannulated Sprague-Dawley rat plasma at 15 mg/kg administered via gavage measured up to 24 hrs post dose by LC/MS/MS analysis. In kind it is ADME, organism-based.
The nature of data set [5]: AUC in cannulated Sprague-Dawley rat plasma at 15 mg/kg administered via oral gavage measured up to 24 hrs post dose by LC/MS/MS analysis. In kind it is ADME, organism-based. Details: dose 15 mg/kg, time < 24 hr, route oral.
Data set [6] in a line: Drug uptake in cannulated Sprague-Dawley rat liver at 15 mg/kg administered via oral gavage measured at 24 hrs post dose by LC/MS/MS analysis. In kind it is ADME, organism-based. The following applies: read-out: Drug uptake.
Data set [7] in a line: Cardiotoxicity in rabbit heart assessed as change in heart rate at 10 uM perfused for 20 mins measured for 1 min by electrophysiology method relative to control. In kind it is toxicity, tissue-based, Oryctolagus cuniculus.
The nature of data set [8]: Cardiotoxicity in rabbit heart assessed as change in heart rate at 10 uM perfused for 60 mins measured every 10 mins during perfusion by electrophysiology method relative to control. In kind it is toxicity, tissue-based, Oryctolagus cuniculus. The settings on record: 1 h.
A short description of data set [9]: Cardiotoxicity in rabbit heart assessed as change in sinoatrial node recovery time at 10 uM perfused for 20 mins measured for 1 min by electrophysiology method relative to control. In kind it is toxicity, tissue-based, Oryctolagus cuniculus.
Data set [10] can be described thus: Cardiotoxicity in rabbit heart assessed as change in sinoatrial node recovery time at 10 uM perfused for 60 mins measured every 10 mins during perfusion by electrophysiology method relative to control. In kind it is toxicity, tissue-based, Oryctolagus cuniculus. The following applies: 1 h.

For the molecule `COc1cnc(O[C@@H]2C[C@@H](C(=O)N[C@]3(C(=O)NS(=O)(=O)C4CC4)C[C@H]3C3CC3)N(C(=O)[C@@H](NC(=O)OC(C)(C)C)C(C)(C)C)C2)c2cc(Cl)ccc12`, the EC50 (in general, the concentration that produces a half-maximal response) with Hepatitis C virus was determined as 0.0183 µM. The half-life (in general, the time in which the quantity being followed falls by half) in data set [1] is 1.38 h; in [2] it was 10 h. For the same molecule, the clearance (usually the rate of elimination divided by the concentration) in data set [3] fell in the range of 5 to 5.2 mL/min/kg. For the same molecule, in data set [4], the bioavailability was 44.2%. Moreover, the AUC (in general, the area under the concentration-time curve, a measure of exposure) at 24 h in [5] was found to be 19.6 µM·h. Moreover, the concentration at 24 h in data set [6] amounted to 35.7 µM. Besides, the Activity in data set [7] is reported as -3.5%; in [8] it was -7.5%; in data set [9], 18.5%; in data set [10], 20%.
On to `COc1cnc(O[C@@H]2C[C@@H](C(=O)N[C@]3(C(=O)NS(=O)(=O)C4CC4)C[C@H]3C3CC3)N(C(=O)[C@@H](NC(=O)OC(C)(C)C(F)(F)F)C(C)(C)C)C2)c2cc(Cl)ccc12`, for which the EC50 with Hepatitis C virus came to 0.0019 µM. For the same molecule, the half-life is 2.13 h in data set [1] and 14 h in data set [2]. Further, the clearance in data set [3] worked out at 4.7 mL/min/kg. In data set [4], the bioavailability amounted to 35.5%. Besides, the AUC at 24 h in data set [5] stood at 19.1 µM·h. Also, the concentration at 24 h in data set [6] came out at 55.3 µM. The figures for the Activity in data set [7] and in [9] were -14.3% and 50.4%, respectively.
As to `COc1cnc(O[C@@H]2C[C@@H](C(=O)N[C@]3(C(=O)NS(=O)(=O)C4CC4)C[C@H]3C3CC3)N(C(=O)[C@@H](NC(=O)OC(C)(C)C(F)F)C(C)(C)C)C2)c2cc(Cl)ccc12`, the EC50 in the data set on Hepatitis C virus came out at 0.0582 µM. In addition, the half-life in data set [1] amounted to 2 h.
The like results for `COc1cnc(O[C@@H]2C[C@@H](C(=O)N[C@]3(C(=O)NS(=O)(=O)C4CC4)C[C@H]3C(C)C)N(C(=O)[C@@H](NC(=O)OC(C)(C)C)C(C)(C)C)C2)c2cc(Cl)ccc12` were, in that order, above 0.1 µM and 1.38 h.
For `C=C(C)[C@@H]1C[C@]1(NC(=O)[C@@H]1C[C@@H](Oc2ncc(OC)c3ccc(Cl)cc23)CN1C(=O)[C@@H](NC(=O)OC(C)(C)C)C(C)(C)C)C(=O)NS(=O)(=O)C1CC1`, the EC50 in the data set with Hepatitis C virus was determined as 0.0125 µM. The half-life in [1] was determined as 0.0833 h.
The like results for `COc1cnc(O[C@@H]2C[C@@H](C(=O)N[C@]3(C(=O)NS(=O)(=O)C4CC4)C[C@H]3C3CC3)N(C(=O)[C@@H](NC(=O)OC3(C)CCCC3)C(C)(C)C)C2)c2cc(Cl)ccc12` were, in that order, 0.0037 µM and 0.4 h.
Turning to `COc1cnc(O[C@@H]2C[C@@H](C(=O)N[C@]3(C(=O)NS(=O)(=O)C4CC4)C[C@H]3C3CC3)N(C(=O)[C@@H](NC(=O)OCC(F)(F)F)C(C)(C)C)C2)c2cc(Cl)ccc12`, in the data set on Hepatitis C virus, the EC50 was determined as 0.0486 µM.
Consider `COc1cnc(O[C@@H]2C[C@@H](C(=O)N[C@]3(C(=O)NS(=O)(=O)C4CC4)C[C@H]3C3CC3)N(C(=O)[C@@H](NC(=O)O[C@H](C)C(F)(F)F)C(C)(C)C)C2)c2cccc(Cl)c12`, for which the EC50 in the data set on Hepatitis C virus stood at 0.0018 µM. Moreover, the half-life is 3.33 h in data set [1] and 10.9 h in [2]. The molecule further showed a clearance in data set [3] of 40.4 to 40.7 mL/min/kg. For the same molecule, the bioavailability in [4] stood at 122%. Also, in [5], the AUC at 24 h was determined as 8.6 µM·h. Further, in data set [6], the concentration at 24 h came to 49.3 µM. The Activity in data set [7] is -19%; in data set [9], 53%.
In the case of `COc1cnc(O[C@@H]2C[C@@H](C(=O)N[C@]3(C(=O)NS(=O)(=O)C4CC4)C[C@H]3C3CC3)N(C(=O)[C@@H](NC(=O)O[C@H](C)C(F)(F)F)C(C)(C)C)C2)c2ccc(Cl)cc12`, the EC50 in the data set on Hepatitis C virus was determined as 0.0034 µM. Moreover, the values for the half-life in data set [1] and in data set [2] were 2.37 h and 10 h, respectively. This molecule had a clearance in [3] of 30.2 mL/min/kg. The bioavailability in [4] was found to be 81%. Further, in [5], the AUC at 24 h worked out at 7.9 µM·h. Besides, in [6], the concentration at 24 h turned out to be 30.7 µM.
Turning to `COc1cnc(O[C@@H]2C[C@@H](C(=O)N[C@]3(C(=O)NS(=O)(=O)C4CC4)C[C@H]3C3CC3)N(C(=O)[C@@H](NC(=O)O[C@H](C)C(F)(F)F)C3CCC3)C2)c2cc(Cl)ccc12`, the EC50 with Hepatitis C virus is 0.0086 µM. In data set [1], this molecule yielded a half-life of 1.85 h.
Regarding `CCC(CC)[C@H](NC(=O)O[C@H](C)C(F)(F)F)C(=O)N1C[C@H](Oc2ncc(OC)c3ccc(Cl)cc23)C[C@H]1C(=O)N[C@]1(C(=O)NS(=O)(=O)C2CC2)C[C@H]1C1CC1`, the EC50 in the data set on Hepatitis C virus came to 0.0072 µM. In data set [1], this molecule registered a half-life of 2 h.
Turning to `COc1ccc2c(O[C@@H]3C[C@@H](C(=O)N[C@]4(C(=O)NS(=O)(=O)C5CC5)C[C@H]4C4CC4)N(C(=O)[C@@H](NC(=O)O[C@H](C)C(F)(F)F)C(C)(C)C)C3)nc(OC)cc2c1`, in the data set on Hepatitis C virus, the EC50 turned out to be 0.0024 µM. For the same molecule, the half-life in [1] was 1.77 h; in data set [2], 3 h. In addition, the clearance in data set [3] stood at 14 mL/min/kg. Moreover, the bioavailability in [4] worked out at 3.5%. This molecule had an AUC at 24 h in [5] of 0.79 to 0.794 µM·h. Besides, the concentration at 24 h in data set [6] came out at 19.2 µM. The Activity in data set [7] was -58%.
With `COc1cnc(O[C@@H]2C[C@@H](C(=O)N[C@]3(C(=O)NS(=O)(=O)C4CC4)C[C@H]3C3CC3)N(C(=O)[C@@H](NC(=O)OC3CCC3)C(C)(C)C)C2)c2cc(Cl)ccc12`, the EC50 with Hepatitis C virus stood at 0.0163 µM. Moreover, the half-life in data set [1] came out at 0.967 h.
In the same order, the values of `COc1cnc(O[C@@H]2C[C@@H](C(=O)N[C@]3(C(=O)NS(=O)(=O)C4CC4)C[C@H]3C3CC3)N(C(=O)[C@@H](NC(=O)O[C@@H](C)C(F)(F)F)C(C)(C)C)C2)c2cc(Cl)ccc12` are 0.146 µM and above 3.33 h.
In the same order, the values of `COc1cnc(O[C@@H]2C[C@@H](C(=O)N[C@]3(C(=O)NS(=O)(=O)C4CC4)C[C@H]3C3CC3)N(C(=O)[C@@H](NC(=O)OC(C)C)C(C)(C)C)C2)c2cc(Cl)ccc12` are 0.0667 µM and 0.583 h.
The like results for `COc1cnc(O[C@@H]2C[C@@H](C(=O)N[C@]3(C(=O)NS(=O)(=O)C4CC4)C[C@H]3C3CC3)N(C(=O)[C@@H](NC(=O)O[C@H](C)C(F)(F)F)C3CC3)C2)c2cc(Cl)ccc12` were, in that order, 0.0133 µM and 3.33 h.
As to `COc1cnc(O[C@@H]2C[C@@H](C(=O)N[C@]3(C(=O)NS(=O)(=O)C4CC4)C[C@H]3C3CC3)N(C(=O)[C@@H](NC(=O)OC3CCCC3)C(C)(C)C)C2)c2cc(Cl)ccc12`, in the data set on Hepatitis C virus, the EC50 was found to be 0.0198 µM. This molecule also displayed a half-life in [1] of 0.65 h.
The like results for `CC[C@@H](C)[C@H](NC(=O)O[C@H](C)C(F)(F)F)C(=O)N1C[C@H](Oc2ncc(OC)c3ccc(Cl)cc23)C[C@H]1C(=O)N[C@]1(C(=O)NS(=O)(=O)C2CC2)C[C@H]1C1CC1` were, in that order, 0.0063 µM and 1.63 h.
The like results for `COc1cnc(O[C@@H]2C[C@@H](C(=O)N[C@]3(C(=O)NS(=O)(=O)C4CC4)C[C@H]3C3CC3)N(C(=O)[C@@H](NC(=O)O[C@H](C)C(F)(F)F)C(C)C)C2)c2cc(Cl)ccc12` were, in that order, 0.008 µM and 2.58 h.
On to `CC[C@@H]1C[C@]1(NC(=O)[C@@H]1C[C@@H](Oc2ncc(OC)c3ccc(Cl)cc23)CN1C(=O)[C@@H](NC(=O)OC(C)(C)C)C(C)(C)C)C(=O)NS(=O)(=O)C1CC1`, for which, in the data set with Hepatitis C virus, the EC50 came to 0.016 µM. Moreover, the half-life is 0.567 h in [1] and 12 h in data set [2]. The clearance in [3] came to 18 mL/min/kg. In addition, the bioavailability in data set [4] was 43%. In [5], this molecule had an AUC at 24 h of 6.9 µM·h. Further, the concentration at 24 h in data set [6] worked out at 40 µM. The Activity was -12% in [7], -35% in data set [8], 26% in data set [9] and 148% in data set [10].
As to `C=C[C@@H]1C[C@]1(NC(=O)[C@@H]1C[C@@H](Oc2nccc3cc(OC)ccc23)CN1C(=O)[C@@H](NC(=O)OC(C)(C)C)C(C)(C)C)C(=O)NS(=O)(=O)C1CC1`, the half-life in data set [1] worked out at 0.55 h. In [5], this molecule had an AUC at 24 h of 14.1 µM·h. Besides, the concentration at 24 h in data set [6] is 0.74 µM. The Activity in [7] is recorded as -25%; in data set [9] it was 290%.
For the molecule `COc1cnc(O[C@@H]2C[C@@H](C(=O)N[C@]3(C(=O)NS(=O)(=O)C4CC4)C[C@H]3C3CC3)N(C(=O)[C@@H](NC(=O)O[C@H](C)C(F)(F)F)C(C)(C)C)C2)c2cc(Cl)cc(Cl)c12`, in the data set on Hepatitis C virus, the EC50 is 0.003 µM. The half-life in data set [1] is 2 h; in data set [2] it was 5.5 h. The same molecule registered a clearance in [3] of 40.4 mL/min/kg. The bioavailability in data set [4] turned out to be 42.4%. The molecule further had an AUC at 24 h in data set [5] of 6.3 µM·h. Besides, the concentration at 24 h in data set [6] stood at 24 µM.
